The values below come from patent publication US12122816B2, “Long acting peptide tyrosine tyrosine (PYY) analogs and methods of use” (Intarcia Therapeutics, Inc., priority 2020, dated 2024).

The term EC50 denotes the concentration needed to bring the measured effect to its halfway point.

For one test, the target named is T1, human Y2 receptor (Homo sapiens, UniProt P49146).
T1 sequence (P49146 1-381): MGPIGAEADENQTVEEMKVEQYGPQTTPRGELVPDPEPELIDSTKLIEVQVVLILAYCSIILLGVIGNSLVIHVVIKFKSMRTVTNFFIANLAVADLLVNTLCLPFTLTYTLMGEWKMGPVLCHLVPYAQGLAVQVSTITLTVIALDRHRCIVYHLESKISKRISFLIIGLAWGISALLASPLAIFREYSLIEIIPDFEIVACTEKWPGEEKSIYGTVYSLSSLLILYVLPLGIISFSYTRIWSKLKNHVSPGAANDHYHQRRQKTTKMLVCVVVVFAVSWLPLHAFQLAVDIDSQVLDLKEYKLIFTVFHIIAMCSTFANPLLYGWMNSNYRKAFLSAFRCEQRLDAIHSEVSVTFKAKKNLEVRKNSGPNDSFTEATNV
The test is described as follows: NPY receptor functional assay (cAMP, HEK-CNG cells, ACTOne membrane potential dye). Format: cell-based. The note with it: NPY2R pEC50, HEK-CNG cells; standard PYY(3-36); species (human or rat) not given. An excerpt: (§1) The NPY family of G-protein coupled receptors include Y1, Y2, Y4, and Y5 in humans and rats. […] Following agonist binding, the receptor-G protein complex activates a downstream intracellular signaling cascade which leads to inhibition of adenylate cyclase and a reduction in intracellular cAMP levels.
(§2) HEK-CNG cells stably expressing the human or rat Y1, Y2, Y4 or Y5 receptors (Codex Biosolutions) were used to characterize the functional potency of peptide agonists using the ActOne™ membrane potential dye kit (Codex Biosolutions). In addition to each NPY receptor, each cell line encodes a proprietary exogenous Cyclic Nucleotide-Gated (CNG) channel (Codex Biosolutions). The channel is activated by elevated intracellular levels of cAMP, resulting in ion flux and cell membrane depolarization which can be detected with a calcium sensitive dye or fluorescent membrane potential (MP) dye. Cells were carried in growth media containing 90% DMEM, 10% FBS, 250 mcg/mL G418 and 1 mcg/mL puromycin for no more than 15 passages.
(§3) Prior to testing, cells were counted and dispensed at 14,000 cells per well (Y1, Y4 and Y5) or 28,000 cells per well (Y2) into black 384 well Poly-D-Lysine plates at 20 mcL per well. Covered plates were then incubated at room temperature for 30 minutes followed by an overnight incubation at 37° C. in 5% C02. The following day, media was removed and wells were washed once with 40 mcL Dulbecco's phosphate buffered saline. […] Ten microliters of experimental peptide or peptide standard was added in triplicate to wells and incubated for 50 minutes at room temperature in the dark. Following this incubation step, plates were read again as before (final read).
(§4) NPY receptor activation, leading to a reduction in intracellular cAMP levels, is detected as a decrease in isoproteranol induced fluorescent signal. Peptide standard and experimental values were initially transformed in excel using the formula: final read/initial read. Transformed values were then normalized to receptor specific standard values (1×10−13 M minimum and 1×10−7 M maximum) using the formula: (test value−standard minavg)/(standard maxavg−standard minavg)*100. […] Normalized data was analyzed from triplicate tests and used to estimate the EC50 for each test peptide on each receptor. Data was fit in GraphPad Prism software (v8.2.1) using a 3-parameter logistic curve model: Y=Bottom+(Top−Bottom)/(1+10^((LogEC50−X))). EC50 values were converted to pEC50 values using the formula: pEC50=−Log(EC50).

A further test has as its target T2, human Y5 receptor (Homo sapiens, UniProt Q15761).
T2 sequence (Q15761 1-445): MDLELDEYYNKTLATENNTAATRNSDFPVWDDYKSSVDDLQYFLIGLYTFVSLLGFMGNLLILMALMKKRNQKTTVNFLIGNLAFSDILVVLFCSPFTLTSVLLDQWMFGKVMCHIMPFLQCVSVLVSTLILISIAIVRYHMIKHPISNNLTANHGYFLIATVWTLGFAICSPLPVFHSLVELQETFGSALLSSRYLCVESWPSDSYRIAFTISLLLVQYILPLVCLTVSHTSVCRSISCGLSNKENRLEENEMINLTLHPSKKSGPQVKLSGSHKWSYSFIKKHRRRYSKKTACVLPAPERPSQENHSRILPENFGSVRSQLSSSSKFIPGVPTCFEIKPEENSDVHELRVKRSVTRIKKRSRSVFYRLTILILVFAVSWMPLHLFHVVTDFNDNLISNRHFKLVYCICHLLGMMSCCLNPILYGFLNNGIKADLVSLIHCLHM
The description is as above. Format: cell-based. Conditions: NPY5R pEC50, HEK-CNG cells; standard NPY; species (human or rat) not given.
Description: as §1, §2, §3, §4

Starred links: 1 amine or outer side, 2 acyl side, 3 side chain; linkers in the order of their positions; H or OH if unused. Residues, ends and D or L forms follow the SMILES beside them. Groups on a side chain read outwards from the residue. *: point of attachment. C20 diacid = O=C(O)CCCCCCCCCCCCCCCCCCC(=O)*; γGlu = O=C(O)[C@H](CCC(=O)[*:2])N[*:1]

For `CC(C)C[C@H](NC(=O)[C@H](CC(=O)O)NC(=O)[C@H](CCCCN)NC(=O)[C@H](Cc1ccc(O)cc1)NC(=O)[C@H](Cc1ccc(O)cc1)NC(=O)[C@H](CCCNC(=N)N)NC(=O)[C@H](CC(N)=O)NC(=O)[C@H](Cc1c[nH]c2ccccc12)NC(=O)[C@H](CCC(=O)O)NC(=O)[C@H](CCCCNC(=O)CC[C@H](NC(=O)CC[C@H](NC(=O)CCCCCCCCCCCCCCCCCCC(=O)O)C(=O)O)C(=O)O)NC(=O)[C@@H]1CCCN1C(=O)[C@H](CO)NC(=O)[C@H](C)NC(=O)[C@H](CC(=O)O)NC(=O)[C@H](CCCCN)NC(=O)CNC(=O)[C@@H]1CCCN1C(=O)[C@H](CCCCN)NC(=O)[C@H](CCC(=O)O)NC(=O)[C@@H]1CCCN1C(=O)[C@H](CCCCN)NC(=O)[C@@H]1CCCN1)C(=O)N[C@@H](CCCNC(=N)N)C(=O)N[C@@H](Cc1c[nH]cn1)C(=O)N[C@@H](Cc1ccc(O)cc1)C(=O)N[C@@H](CC(C)C)C(=O)N[C@@H](CC(N)=O)C(=O)N[C@@H](Cc1c[nH]c2ccccc12)C(=O)N[C@@H](CC(C)C)C(=O)N[C@H](C(=O)N[C@@H](CCCNC(=N)N)C(=O)N[C@@H](CCC(N)=O)C(=O)N[C@@H](CCCNC(=N)N)C(=O)N[C@@H](Cc1ccccc1)C(N)=O)[C@@H](C)O` [Compound A70] (H-PKPEKPGKDASPK([γGlu-γGlu-C20 diacid])EWNRYYKDLRHYLNWLTRQRF-NH2; N-terminus assumed), the values for the EC50 on human Y2 receptor and on human Y5 receptor were 0.0398 nM and 2 nM, respectively.

As to `CC(C)C[C@H](NC(=O)[C@H](CC(=O)O)NC(=O)[C@H](CCCCN)NC(=O)[C@H](Cc1ccc(O)cc1)NC(=O)[C@H](Cc1ccc(O)cc1)NC(=O)[C@H](CCCNC(=N)N)NC(=O)[C@H](CC(N)=O)NC(=O)[C@H](Cc1c[nH]c2ccccc12)NC(=O)[C@H](CCC(=O)O)NC(=O)[C@H](CCCCN)NC(=O)[C@@H]1CCCN1C(=O)[C@H](CO)NC(=O)[C@H](C)NC(=O)[C@H](CC(=O)O)NC(=O)[C@H](CCCCN)NC(=O)CNC(=O)[C@@H]1CCCN1C(=O)[C@H](CCCCNC(=O)CC[C@H](NC(=O)CC[C@H](NC(=O)CCCCCCCCCCCCCCCCCCC(=O)O)C(=O)O)C(=O)O)NC(=O)[C@H](CCC(=O)O)NC(=O)[C@@H]1CCCN1C(=O)[C@H](CCCCN)NC(=O)[C@@H]1CCCN1)C(=O)N[C@@H](CCCNC(=N)N)C(=O)N[C@@H](Cc1c[nH]cn1)C(=O)N[C@@H](Cc1ccc(O)cc1)C(=O)N[C@@H](CC(C)C)C(=O)N[C@@H](CC(N)=O)C(=O)N[C@@H](Cc1c[nH]c2ccccc12)C(=O)N[C@@H](CC(C)C)C(=O)N[C@H](C(=O)N[C@@H](CCCNC(=N)N)C(=O)N[C@@H](CCC(N)=O)C(=O)N[C@@H](CCCNC(=N)N)C(=O)N[C@@H](Cc1ccccc1)C(N)=O)[C@@H](C)O` [Compound A37] (H-PKPEK([γGlu-γGlu-C20 diacid])PGKDASPKEWNRYYKDLRHYLNWLTRQRF-NH2; N-terminus assumed), the concentration giving a half-maximal response (EC50) at human Y2 receptor was 0.0158 nM; at human Y5 receptor it was 2.51 nM.

Take `CC(C)C[C@H](NC(=O)[C@H](CC(=O)O)NC(=O)[C@H](CCCCN)NC(=O)[C@H](Cc1ccc(O)cc1)NC(=O)[C@H](Cc1ccc(O)cc1)NC(=O)[C@H](CCCNC(=N)N)NC(=O)[C@H](CO)NC(=O)[C@H](Cc1c[nH]c2ccccc12)NC(=O)[C@H](CCC(=O)O)NC(=O)[C@H](CCC(=O)O)NC(=O)[C@@H]1CCCN1C(=O)[C@H](CO)NC(=O)[C@H](C)NC(=O)[C@H](CC(=O)O)NC(=O)[C@H](CCCCNC(=O)CC[C@H](NC(=O)CC[C@H](NC(=O)CCCCCCCCCCCCCCCCCCC(=O)O)C(=O)O)C(=O)O)NC(=O)CNC(=O)[C@@H]1CCCN1C(=O)[C@H](CCCCN)NC(=O)[C@H](CCC(=O)O)NC(=O)[C@@H]1CCCN1C(=O)[C@H](CCCCN)NC(=O)[C@@H]1CCCN1)C(=O)N[C@@H](CCCNC(=N)N)C(=O)N[C@@H](Cc1c[nH]cn1)C(=O)N[C@@H](Cc1ccc(O)cc1)C(=O)N[C@@H](CC(C)C)C(=O)N[C@@H](CC(N)=O)C(=O)N[C@@H](Cc1c[nH]c2ccccc12)C(=O)N[C@@H](CC(C)C)C(=O)N[C@H](C(=O)N[C@@H](CCCNC(=N)N)C(=O)N[C@@H](CCC(N)=O)C(=O)N[C@@H](CCCNC(=N)N)C(=O)N[C@@H](Cc1ccccc1)C(N)=O)[C@@H](C)O` [Compound A75]: the EC50 at human Y5 receptor is 0.501 nM. This counts as sub-nanomolar.
